Assay results: PubChem BioAssay (NCI)
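A five-concentration, 48-hour dose response in 96-well plates underlies each endpoint, interpolated linearly between surrounding concentrations. At the GI50, growth is halved. The concentration for full growth arrest is given as TGI.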

Columns and labels:
Experiment in all cases: inhibition of tumour cell growth, NCI panel, 48 h
RPMI-8226 leukemia = system: RPMI-8226 leukemia
EKVX NSCLC = system: EKVX NSCLC
NCI-H522 lung = system: NCI-H522 lung
NCI-H460 lung = system: NCI-H460 lung
SF-295 CNS = system: SF-295 CNS
HT29 colon = system: HT29 colon
PC-3 prostate = system: PC-3 prostate
RXF 393 renal = system: RXF 393 renal
OVCAR-5 ovarian = system: OVCAR-5 ovarian
SK-MEL-2 melanoma = system: SK-MEL-2 melanoma

SMILES	TGI (RPMI-8226 leukemia) [µM]	TGI (EKVX NSCLC) [µM]	TGI (NCI-H522 lung) [µM]	TGI (NCI-H460 lung) [µM]	TGI (SF-295 CNS) [µM]	TGI (HT29 colon) [µM]	TGI (PC-3 prostate) [µM]	TGI (RXF 393 renal) [µM]	TGI (OVCAR-5 ovarian) [µM]	TGI (SK-MEL-2 melanoma) [µM]	GI50 (RPMI-8226 leukemia) [µM]	GI50 (EKVX NSCLC) [µM]	GI50 (NCI-H522 lung) [µM]	GI50 (NCI-H460 lung) [µM]	GI50 (SF-295 CNS) [µM]	GI50 (HT29 colon) [µM]	GI50 (PC-3 prostate) [µM]	GI50 (RXF 393 renal) [µM]	GI50 (OVCAR-5 ovarian) [µM]	GI50 (SK-MEL-2 melanoma) [µM]
CCOC(=O)C(C(=S)Nc1ccccc1)c1nn2c(=O)cc(C)nc2s1 (stereo not drawn)	67.5	49.2	53.9	81.1	> 100	41.4	66.3	> 100	> 100	94.8	–	–	–	–	–	–	–	–	–	–
O=c1oc2cc(O)ccc2c(O)c1C(c1cccnc1)c1c(O)c2ccc(O)cc2oc1=O	> 100	> 100	> 100	> 100	> 100	> 100	> 100	> 100	> 100	> 100	–	–	–	–	–	–	–	–	–	–
N=C(N)SCc1ccc(Cl)cc1Cl (tested in a mixture with another compound)	12.7	37.2	30.8	24.2	31.3	29.2	24.6	27.9	35.7	27.5	–	–	–	–	–	–	–	–	–	–
Cc1ccc(-n2[nH]nc(C#N)c2=O)cc1	> 100	> 100	> 100	> 100	> 100	> 100	> 100	> 100	> 100	> 100	–	–	–	–	–	–	–	–	–	–
COCOc1c(C(O[Si](C)(C)C(C)(C)C)c2cnc(Sc3ccccc3)n2C)ccc(OC)c1OC (stereo not drawn)	4.77	7.65	3.58	3.02	6.18	4.15	3.04	2.71	> 100	3.05	–	–	–	–	–	–	–	–	–	–
CC1OC(O[C@H]2C3C=CO[C@@H](OC4OC(CO)C(O)C(O)C4O)C3[C@@]3(COC(=O)/C=C/c4ccc(O)cc4)O[C@@H]23)C(O)C(O)C1O (stereo partly drawn)	> 100	> 100	> 100	> 100	> 100	> 100	> 100	> 100	> 100	> 100	–	–	–	–	–	–	–	–	–	–
CC(C)(C)c1cc(C2=NN(c3ccccc3)C(c3ccccc3)C2)cc(C(C)(C)C)c1O (stereo not drawn)	> 100	> 100	> 100	> 100	> 100	> 100	> 100	> 100	> 100	> 100	–	–	–	–	–	–	–	–	–	–
Cc1cc(NC[C@H](O)[C@H](O)[C@H](O)CO)c(Sc2cc(=O)[nH]c(=O)[nH]2)cc1C	> 62.5	> 62.5	> 62.5	> 62.5	> 62.5	> 62.5	> 62.5	> 62.5	> 62.5	> 62.5	–	–	–	–	–	–	–	–	–	–
N#C/C(=C\c1cc(Cl)cc(Cl)c1)c1ccccn1	> 100	60	> 100	> 100	> 100	> 100	> 100	47.2	> 100	> 100	–	–	–	–	–	–	–	–	–	–
CCOC(=O)C(Cl)(NC(=O)c1c(F)c(F)c(F)c(F)c1F)C(F)(F)F (stereo not drawn)	> 100	> 100	54.7	–	> 100	> 100	> 100	> 100	> 100	> 100	–	–	–	–	–	–	–	–	–	–
O=C1/C(=C/c2ccc(Cl)cc2)N=C(c2ccccc2)N1CCc1cccs1	83.4	> 100	74	> 100	> 100	> 100	> 100	> 100	> 100	> 100	14.5	13.8	15.3	20.1	17.7	20.3	13	23.3	61.2	14
NC1CC2NC3CCCCC3NC2CC1N (stereo not drawn)	> 100	> 100	39.9	> 100	> 100	> 100	> 100	94.5	> 100	> 100	–	–	–	–	–	–	–	–	–	–
CC(C)C1=CCC2C(=C1)CCC1C(C)(C(=O)O)CCCC21C (stereo not drawn) (tested in a mixture with another compound)	70.2	> 100	> 100	–	> 100	> 100	> 100	> 100	> 100	> 100	–	–	–	–	–	–	–	–	–	–
NCCCNC1(c2cc3ccccc3s2)CCCCC1	5.88	22.5	9.13	4.06	24.8	10.9	21	17.3	26.3	4.2	–	–	–	–	–	–	–	–	–	–
O=S(=O)(O)ON=C1c2ccccc2-c2ccccc21	> 100	> 100	> 100	> 100	> 100	> 100	> 100	> 100	> 100	> 100	–	–	–	–	–	–	–	–	–	–
CC(=O)O[C@@H]1C2=C(C)C=C(O2)[C@H]2O[C@]2(C)C[C@H]2C=C(C(=O)O2)[C@H](OC(C)=O)CC1[C@@]1(C)CO1 (stereo partly drawn)	33.9	85	12.5	> 100	> 100	> 100	> 100	36.8	76.8	> 100	–	–	–	–	–	–	–	–	–	–
O=C1/C(=C/c2ccccc2O)N=C(c2ccccc2)N1c1nc2ccccc2s1	49.3	> 100	17.2	56.4	87.1	74	43.8	> 100	> 100	43.4	–	–	–	–	–	–	–	–	–	–
CCCCN1C(=O)c2c(-c3sccc3N)sc(-c3sccc3N)c2C1=O	55	> 83.7	> 100	> 100	58	44.5	> 100	41	> 78.9	> 100	–	–	–	–	–	–	–	–	–	–
